Experiments:
MAO-B = biological target: T1, MAO-B (Homo sapiens, UniProt P27338); assay: MAO-B inhibition assay (Biovision fluorometric kit); assay type: biochemical
T1 construct: purchased Biovision
T1 sequence (P27338 1-520): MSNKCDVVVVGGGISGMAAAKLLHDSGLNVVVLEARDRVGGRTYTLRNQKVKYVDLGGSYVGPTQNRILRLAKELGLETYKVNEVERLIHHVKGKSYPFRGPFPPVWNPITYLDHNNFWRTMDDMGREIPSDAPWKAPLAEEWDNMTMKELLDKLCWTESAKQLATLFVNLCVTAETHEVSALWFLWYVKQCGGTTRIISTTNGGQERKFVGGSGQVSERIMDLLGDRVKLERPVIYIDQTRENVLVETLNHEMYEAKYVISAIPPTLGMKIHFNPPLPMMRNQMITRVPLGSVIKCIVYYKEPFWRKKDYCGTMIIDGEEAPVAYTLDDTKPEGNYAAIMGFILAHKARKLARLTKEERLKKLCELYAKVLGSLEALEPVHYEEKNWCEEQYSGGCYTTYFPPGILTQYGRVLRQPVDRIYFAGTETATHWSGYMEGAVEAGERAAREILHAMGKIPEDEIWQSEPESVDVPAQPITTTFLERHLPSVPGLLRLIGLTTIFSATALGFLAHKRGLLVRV
Procedure: MAO-B (EC 1.4.3.4) activity inhibition was assayed using Biovision inhibition screening kit (fluorometric). With all reaction components at room temperature, 0.2 U enzyme was pre-incubated with compounds under study and incubated for 10 min. Working substrate was prepared fresh by adding developer and oxired probe with assay buffer according to kit instructions. Substrate was added to the reaction and incubated for 10 min; zero-minute fluorescence was recorded (Ex 535 nm, Em 587 nm) to serve as control for relative fluorescence inhibition calculation.

PC12 cells [1] = assay: Aβ42 induced neurotoxicity in PC12 cells (MTT assay); details: 24 h
Procedure: Cells were seeded in 96 well plate in log phase of growth at concentration 5 × 10^5 cells per well. […] MTT solution was added to the wells and incubated in dark, for the live cells to convert the tetrazolium salt in purple formazan crystals. The formazan crystals were dissolved using DMSO and absorbance was measured at 570 nm. Relative survival percentage of PC12 cells was calculated compared to control (PC12 cells only). All measurements were performed in triplicates and all experiments were repeated thrice individually.

Aβ42 [2] = biological target: T2, Aβ42 (Homo sapiens, UniProt P05067); assay: ThT fluorescence assay of Aβ42 fibril formation (anti-aggregation); assay type: biochemical; design: Aβ42—Amyloid beta 1-42 residues; purchased Link biotech (named in a list that ends 'purchased from Sigma Aldrich, India'); details: vs control (Aβ42 only), 48 h; for inhibition of Aβ42 aggregation (ThT fluorescence): at 44 μM
T2 sequence (P05067 672-713 limits assumed): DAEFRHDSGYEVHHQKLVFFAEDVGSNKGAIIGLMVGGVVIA
Procedure: Aβ42 samples were incubated with or without compounds at different concentrations, after 48 h of fibril formation samples from each experimental set were withdrawn and mixed with ThT in opaque micro titer plate. The reactions were then incubated in dark at 37 °C for 30 min for ThT probe to bind the formed amyloid fibrils. The ThT was excited at 450 nm and spectra were recorded from 400 to 650 nm.

Aβ42 [3] = biological target: T2, Aβ42; assay: Congo red dye binding (red shift) assay with Aβ42 fibrils; details: CR only 490 nm, Aβ42 only 530 nm
Procedure: Aβ42 alone sample was used as control. Samples were incubated at 37 °C at 260 rpm for 48 h in the shaker incubator.
Congo red (200 μM) was dissolved in a 50 mM phosphate buffer (pH 7.4) consisting of 50 mM NaCl and 10% ethanol and filtered through 0.45 µm CA membrane filter. The Aβ42 concentration was fixed at 10 µM in the reaction mixture. […] The absorbance spectra (400–650 nm) of the samples were recorded with a UV-visible spectrophotometer [27]. All experiments had three technological and three biological repeats.

Aβ42 [4] = biological target: T2, Aβ42; assay: Transmission electron microscopy of Aβ42 aggregates; design: Aβ42—Amyloid beta 1-42 residues; purchased Link biotech (named in a list that ends 'purchased from Sigma Aldrich, India'); details: Aβ42 + 44 μM compound, 37 °C, 48 h; control: abundant long, branched, dense fibrils
Procedure: 5 μL Aβ42 prepared fibril samples (22 μM) Aβ42 alone and Aβ42 with RES and AJM) were loaded on carbon stabilized, formvar coated grid for 40 sec. Ashless filter paper was used to wipe out extra sample from the edges of the grid. Loaded grid was negatively stained with 1% uranyl acetate for 20 sec and air-dried. Grid was then examined and photographed on JEOL 2100F transmission electron microscope.

PC12 cells [5] = assay: Neuroprotection against H2O2 induced oxidative stress cytotoxicity in PC12 cells (MTT assay); assay type: cell-based, rat; details: compound 40 μM; H2O2 200 µM; negative control 31% viability
Procedure: Cell viability was determined through trypan blue dye exclusion assay and cells were seeded to 96 well tissue culture plate at a 5 × 10^5 cells/well concentration. Pre-incubation with compounds were given to PC12 cells prior to inducing H2O2 cytotoxicity for 18 h. MTT was added to the well at 5 mg/mL concentration and incubated in the dark for enzymatic reaction by live cells for 2 h. DMSO was added to well to dissolve formazan crystals and absorbance was recorded at 570 nm. PC12 cells relative survival was calculated compared to control (PC12 cells only).

AChE = biological target: T3, AChE (Electrophorus electricus, UniProt O42275); assay: biochemical; details: for SI (selectivity index): AChE selectivity over BuChE, IC50 BuChE/IC50 AChE; for IC50: mean ± SD, three replicate determinations
T3 construct: acetylcholinesterase from electric eel; purchased Sigma Aldrich, India
T3 sequence (O42275 24-633): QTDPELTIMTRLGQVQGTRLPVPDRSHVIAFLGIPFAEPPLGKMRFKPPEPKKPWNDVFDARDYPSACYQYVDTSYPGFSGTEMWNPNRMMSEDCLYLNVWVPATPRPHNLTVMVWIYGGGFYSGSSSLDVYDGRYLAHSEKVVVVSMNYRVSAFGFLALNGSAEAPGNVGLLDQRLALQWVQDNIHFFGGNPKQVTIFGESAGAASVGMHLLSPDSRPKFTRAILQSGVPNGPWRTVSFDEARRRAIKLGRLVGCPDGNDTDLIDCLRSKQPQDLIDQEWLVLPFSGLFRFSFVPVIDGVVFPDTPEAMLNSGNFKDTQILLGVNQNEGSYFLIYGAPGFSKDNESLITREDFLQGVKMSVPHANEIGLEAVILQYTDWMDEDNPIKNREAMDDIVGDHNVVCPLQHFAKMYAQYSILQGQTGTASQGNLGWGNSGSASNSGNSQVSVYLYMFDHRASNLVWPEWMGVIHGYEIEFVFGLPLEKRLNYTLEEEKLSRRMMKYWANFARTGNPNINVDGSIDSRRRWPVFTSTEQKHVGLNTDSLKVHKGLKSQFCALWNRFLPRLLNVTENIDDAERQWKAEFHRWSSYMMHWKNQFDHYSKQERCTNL
Source text: (§1) MAO-B inhibition kit by Biovision. BACE-1 activity assay kit by Sigma Aldrich. […] PC12 (rat pheochromocytoma) cell line was obtained from NCCS, Pune, India. All other reagents used were of analytical grade. All preparations used in tissue culture experiments were filtered through 0.45 µm Axiva 25 mm CA filter. Ethical approval was obtained from GGS Indrapratha University for all the cell culture work done in proper confined facilities.
(§2) Five microliters of enzyme (AChE and BuChE) solution at 0.03 U/mL final assay concentration; 200 μL of phosphate buffer (pH 8); 5 μL of DTNB (0.3 mM); and 5 μL of test compounds were pre-incubated for 15 min at RT. The reaction was initiated by adding 5 μL of substrate (ATChI and BuTChI) at a final concentration of 0.5 mM. The control for relative absorbance consisted of the buffer in place of the test compounds and the enzyme and substrate blank were devoid of enzyme and the substrate, respectively.

BuChE = biological target: T4, BuChE (Equus caballus, UniProt P81908); assay: biochemical; details: mean ± SD, three replicate determinations
T4 construct: butyrylcholinesterase from equine serum; purchased Sigma Aldrich, India; host or cells: equine serum
T4 sequence (P81908 whole entry): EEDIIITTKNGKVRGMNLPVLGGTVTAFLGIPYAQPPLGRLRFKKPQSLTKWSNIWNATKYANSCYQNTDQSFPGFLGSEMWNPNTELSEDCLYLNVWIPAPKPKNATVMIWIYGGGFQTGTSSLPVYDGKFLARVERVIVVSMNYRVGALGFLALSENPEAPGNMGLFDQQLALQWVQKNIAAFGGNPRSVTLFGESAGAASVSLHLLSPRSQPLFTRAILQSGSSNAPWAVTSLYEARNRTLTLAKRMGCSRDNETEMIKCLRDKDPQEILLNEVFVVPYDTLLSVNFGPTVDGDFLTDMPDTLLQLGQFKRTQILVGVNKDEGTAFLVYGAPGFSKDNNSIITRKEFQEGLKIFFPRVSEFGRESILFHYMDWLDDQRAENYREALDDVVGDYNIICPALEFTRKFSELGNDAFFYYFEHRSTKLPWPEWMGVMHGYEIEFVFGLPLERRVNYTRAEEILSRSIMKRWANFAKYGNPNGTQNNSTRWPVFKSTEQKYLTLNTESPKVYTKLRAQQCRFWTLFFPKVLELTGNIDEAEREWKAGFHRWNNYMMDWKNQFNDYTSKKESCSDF
Source text: as §1, §2

BACE-1 = biological target: T5, BACE-1 (Homo sapiens, UniProt P56817); assay: In vitro BACE-1 enzyme inhibition assay (FRET kit); assay type: biochemical
T5 construct: purchased Sigma Aldrich
T5 sequence (P56817 46-501): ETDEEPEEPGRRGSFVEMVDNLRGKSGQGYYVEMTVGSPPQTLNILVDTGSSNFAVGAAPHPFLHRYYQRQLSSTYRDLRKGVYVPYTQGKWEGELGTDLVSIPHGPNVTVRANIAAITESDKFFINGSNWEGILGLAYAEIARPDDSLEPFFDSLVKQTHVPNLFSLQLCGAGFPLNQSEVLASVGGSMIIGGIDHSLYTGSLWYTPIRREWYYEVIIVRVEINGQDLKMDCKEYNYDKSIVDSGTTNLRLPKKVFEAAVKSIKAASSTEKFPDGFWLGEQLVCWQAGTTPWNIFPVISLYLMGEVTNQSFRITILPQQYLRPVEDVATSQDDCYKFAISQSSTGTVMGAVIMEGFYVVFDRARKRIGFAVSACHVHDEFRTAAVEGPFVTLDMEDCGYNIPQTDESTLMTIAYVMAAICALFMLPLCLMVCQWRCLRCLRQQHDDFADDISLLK
Procedure: BACE-1 (EC 3.4.23.46) activity inhibition was assayed using FRET (fluorescence resonance energy transfer) kit (Sigma Aldrich, New Delhi, India). With all reaction components at RT, 50 μM substrate was added to 75 μL assay buffer containing RES and AJM (25, 50, 100 μM) in the microtiter plate. Reaction was initiated by the addition of 0.03 U BACE-1 enzyme in the well and zero minute fluorescence was recorded (Ex 350 nm, Em 405 nm). After 2 h incubation in dark at 37 °C, reaction fluorescence was recorded every one hour for next three hours. Relative fluorescence inhibition was calculated from zero minute fluorescence reading as control. Three individual experiments were performed.

Aβ42 [6] = biological target: T2, Aβ42; assay: Circular dichroism spectroscopy of Aβ42 secondary structure (BeStSel); assay type: biochemical; design: Aβ42—Amyloid beta 1-42 residues; purchased Link biotech (named in a list that ends 'purchased from Sigma Aldrich, India'); details: for Secondary structure content: Others / Secondary structure content: α-helix / Secondary structure content: Turn / Secondary structure content: β-sheet (parallel) / Secondary structure content: β-sheet (antiparallel): Aβ42 22 μM + compound 22 μM, BeStSel from CD spectra; for Secondary structure content: Others / Secondary structure content: α-helix: Aβ42 control 0.0; for Secondary structure content: Turn: Aβ42 control 8.6; for Secondary structure content: β-sheet (parallel): Aβ42 control 16.5; for Secondary structure content: β-sheet (antiparallel): Aβ42 control 74.9; for inhibition in β-sheet formation: compared to control (Aβ42 only), CD, 48 h incubation
Procedure: Secondary structure of Aβ42 peptides were recorded as far UV circular dichroism spectra using Chirascan (Applied PhotoPhysics, New Delhi, India) instrument and software. 22 μM Aβ42 samples (22 μM Aβ42 alone and Aβ42 with RES and AJM) were mixed well ensuring a homogenous suspension and transferred to quartz cell for CD spectra scanning. CD spectra was recorded from 200–260 nm at RT using a bandwidth of 1.0 nm, times per point 0.5 sec, a step interval of 1 nm, and 10 mm path length. Five scans of each sample were measured and averaged. Averaged control buffer scans were subtracted from the sample spectra. The results of CD measurement were plotted as graph between measured ellipticity (millidegree) and wavelength (nm). The secondary structure contents (α-helix, β-sheet, turn, and random coil) of the Aβ42 peptide samples were estimated from the CD spectra using the CD Pro software. Relative percentage of reduced β-sheet content in Aβ42 samples treated with RES and AJM was calculated using BeStSel software.

Compound | inhibition of Aβ42 aggregation (ThT fluorescence) (Aβ42 [2]) | Congo red absorbance wavelength (red shift) with Aβ42 (Aβ42 [3]; Aβ42 + compound 22 μM) | Congo red absorbance wavelength (red shift) with Aβ42 (Aβ42 [3]; Aβ42 + compound 44 μM) | morphology of Aβ42 aggregates by TEM (Aβ42 [4]) | survival of PC12 cells against H2O2 induced oxidative stress (MTT) (PC12 cells [5]) | SI (selectivity index) (AChE) | IC50 (AChE) | IC50 (BuChE) | Secondary structure content: Others (Aβ42 [6]) | Secondary structure content: α-helix (Aβ42 [6]) | Secondary structure content: Turn (Aβ42 [6]) | Secondary structure content: β-sheet (parallel) (Aβ42 [6]) | Secondary structure content: β-sheet (antiparallel) (Aβ42 [6]) | inhibition in β-sheet formation (Aβ42 [6]) | survival of PC12 cells against Aβ42 cytotoxicity (MTT) (PC12 cells [1]; rat, 40 μM) | other results
COC(=O)C1=CO[C@@H](C)[C@H]2CN3CCc4c([nH]c5ccccc45)[C@@H]3C[C@H]12 [Ajmalicine] | 57% | 510 nm | 510 nm | shorter, loose, and less Aβ42 fibrils along with small oligomers | 89% | 1.55 | 3.5 ± 1.41 µM | 5.44 ± 1.75 µM | 53.1% | 0.0% | 11.7% | 0.0% | 35.2% | 53% | – | MAO-B inhibition (MAO-B; at 40 μM): 89%; survival of PC12 cells against Aβ42 cytotoxicity (MTT) (PC12 cells [1]; compound 40 μM, Aβ42 fibrils 40 μM): 67%; AChE inhibition (AChE; at 50 μM): 90%; inhibition of BACE-1 activity (BACE-1; at 50 μM): 69%
COC(=O)[C@H]1[C@H]2C[C@@H]3c4[nH]c5cc(OC)ccc5c4CCN3C[C@H]2C[C@@H](OC(=O)c2cc(OC)c(OC)c(OC)c2)[C@@H]1OC [Reserpine] | – | 510 nm | 510 nm | shorter, loose, and less Aβ42 fibrils along with small oligomers | 93% | 1.65 | 1.7 ± 2.08 µM | 2.8 ± 1.84 µM | 54.9% | 0.0% | 17.8% | 0.0% | 27.3% | 64% | 92% | inhibition at 40 µM (MAO-B): 89%; inhibition at 44 µM (Aβ42 [2]): 69%; inhibition at 50 µM (AChE; read-out: AChE inhibition): 96%; inhibition at 50 µM (BACE-1): 47%
N[C@@H](CCC(=O)N[C@@H](CS)C(=O)NCC(=O)O)C(=O)O [glutathione] | – | – | – | – | 91% | – | – | – | – | – | – | – | – | – | – | –
NCCCS(=O)(=O)O [homotaurine] | – | – | – | – | – | – | – | – | – | – | – | – | – | – | 58% | –
Tannic acid | 85% | – | – | – | – | – | – | – | – | – | – | – | – | – | – | –

Source: article PMC7180484 (Molecules, 2020)
